How the values were obtained:
Human KRAS G12V = target: T1, Human KRAS G12V (Homo sapiens, UniProt P01116, G12V); assay: KRAS-G12V/GTP binding assay (HTRF kit); conditions: 25° C., 1 h
T1 construct: purchased PerkinElmer
Experimental: Test Example 2: KRAS G12V Binding Assay
In this method, the inhibitory effects of the compounds on the binding of KRAS G12V to GTP were assayed by a homogeneous time-resolved fluorescence (HTRF) technique using a KRAS-G12V/GTP binding assay kit (PerkinElmer).
The experimental procedures were as follows (refer to the kit instructions for detailed test methods): the compounds of the present disclosure were each firstly dissolved in DMSO at a concentration of 20 mM, and then diluted in an equal gradient with a buffer in the kit, so that the final concentrations of the test compounds in the reaction system were in a range of 0.02-5000 nM, and the final concentration of DMSO was 0.5%. 5 μL of each compound was incubated with 5 μL of 1× Human KRAS G12V 6His-tagged (PerkinElmer), 5 µL of 1×6His Eu Cryptate Antibody (PerkinElmer), and 5 μL of 1×GTP Red reagent (PerkinElmer) in a 384-well plate (Greiner) at 25° C. for 1 h. After the incubation was completed, the fluorescence intensity of each well was measured at the excitation wavelength of 337 nm and the emission wavelengths of 620 nm and 665 nm with an EnVision microplate reader (PerkinElmer) in the HTRF mode, and Ratio values were calculated using the formula: Ratio=(665 nm/620 nm)×10^4. The inhibition rates of the compounds at each concentration were calculated by comparing the fluorescence intensity ratio with that of the control group. Then non-linear curve fittings for logarithmic concentration-inhibition rate were performed using the GraphPad Prism 8 analysis software, and the IC50 values of the compounds were obtained (Table 3).

[1] = test system: KRAS G12D mutant human gastric cancer cell AGS; assay: 3D cell proliferation inhibition assay, AGS; assay type: cell-based; conditions: 168 h, 3D culture, 7 days, CTG
Outline: (§1)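 Cells seeded in low-adsorption plates at 5×10^2 cells/well (MKN1 1×10^3) with compounds at final 10000–0.026 nM, 0.2% DMSO, 3D culture 7 days at 37 °C. Viability by CellTiter-Glo luminescence; inhibition normalised to DMSO and medium-only controls, IC50 from nonlinear log-concentration fit.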

[2] = test system: KRAS G12C mutant human non-small cell lung cancer cell NCI-H358; assay: 3D cell proliferation inhibition assay, NCI-H358; assay type: cell-based; conditions: NCI-H358, 168 h, 3D culture, 7 days, CTG
Outline: as §1

[3] = test system: KRAS G12V mutant human lung squamous carcinoma cell SW900; assay: 3D cell proliferation inhibition assay, SW900; assay type: cell-based; conditions: SW900, 168 h, 3D culture, 7 days, CTG
[4] = test system: KRAS G12V mutant human colorectal cancer cell SW620; assay: 3D cell proliferation inhibition assay, SW620; assay type: cell-based; conditions: SW-620, 168 h, 3D culture, 7 days, CTG
Outline: as §1

[5] = test system: KRAS G13D mutant human colorectal cancer epithelial cell DLD-1; assay: 3D cell proliferation inhibition assay, DLD-1; assay type: cell-based; conditions: DLD-1, 168 h, 3D culture, 7 days, CTG
Outline: as §1

T1 sequence (P01116 1-188 isoform P01116-2 G12V): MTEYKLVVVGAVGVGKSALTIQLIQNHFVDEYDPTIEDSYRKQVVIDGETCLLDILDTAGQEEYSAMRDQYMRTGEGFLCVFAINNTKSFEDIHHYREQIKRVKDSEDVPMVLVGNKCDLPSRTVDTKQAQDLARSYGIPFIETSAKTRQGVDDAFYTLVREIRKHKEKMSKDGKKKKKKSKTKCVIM

SMILES	IC50 (Human KRAS G12V)	IC50 [1]	IC50 [2]	IC50 [3]	IC50 [4]	IC50 [5]
C#Cc1c(F)ccc2cc(O)cc(-c3ncc4c(N5CCC[C@@](C)(O)C5)nc(OCC5(CN6CCN(CC7CCC8(CC7)CCN(C(=O)c7ccc(Cl)c(N9CCC(=O)NC9=O)c7)CC8)CC6)CC5)nc4c3F)c12 [Example 1, (R)-1-(2-chloro-5-(9-((4-((1-(((7-(8-ethynyl-7-fluoro-3-hydroxynaphthalen-1-yl)-8-fluoro-4-(3-hydroxy-3-methylpiperidin-1-yl)pyrido[4,3-d]pyrimidin-2-yl)oxy)methyl)cyclopropyl)methyl)piperazin-1-yl)methyl)-3-azaspiro[5.5]undecane-3-carbonyl)phenyl)dihydropyrimidine-2,4(1H,3H)-dione]	≤ 500 nM	≤ 50 nM	≤ 50 nM	≤ 50 nM	1.41 nM	≤ 50 nM
C#Cc1cccc2cc(O)cc(-c3ncc4c(N5CCC[C@@](C)(O)C5)nc(OCC5(CN6CCN(CC7CCC8(CC7)CCN(C(=O)c7ccc(Cl)c(N9CCC(=O)NC9=O)c7)CC8)CC6)CC5)nc4c3F)c12 [Example 11, (R)-1-(2-chloro-5-(9-((4-((1-(((7-(8-ethynyl-3-hydroxynaphthalen-1-yl)-8-fluoro-4-(3-hydroxy-3-methylpiperidin-1-yl)pyrido[4,3-d]pyrimidin-2-yl)oxy)methyl)cyclopropyl)methyl)piperazin-1-yl)methyl)-3-azaspiro[5.5]undecane-3-carbonyl)phenyl)dihydropyrimidine-2,4(1H,3H)-dione]	500 to 1000 nM	≤ 50 nM	≤ 50 nM	≤ 50 nM	5.43 nM	≤ 50 nM
C#Cc1c(F)ccc2cc(O)cc(-c3ncc4c(N5CCC[C@@](C)(O)C5)nc(OCC5(CN6CCN(CC7CCC8(CC7)CCN(C(=O)c7ccc(C)c(N9CCC(=O)NC9=O)c7)CC8)CC6)CC5)nc4c3F)c12 [Example 6, (R)-1-(5-(9-((4-((1-(((7-(8-ethynyl-7-fluoro-3-hydroxynaphthalen-1-yl)-8-fluoro-4-(3-hydroxy-3-methylpiperidin-1-yl)pyrido[4,3-d]pyrimidin-2-yl)oxy)methyl)cyclopropyl)methyl)piperazin-1-yl)methyl)-3-azaspiro[5.5]undecane-3-carbonyl)-2-methylphenyl)dihydropyrimidine-2,4(1H,3H)-dione]	≤ 500 nM	≤ 50 nM	≤ 50 nM	≤ 50 nM	1.28 nM	≤ 50 nM
C#Cc1c(F)ccc2cc(O)cc(-c3ncc4c(N5CCC[C@@](C)(O)C5)nc(OCC5(CN6CCN(CC7CCC8(CC7)CCN(C(=O)c7ccc(OC)c(N9CCC(=O)NC9=O)c7)CC8)CC6)CC5)nc4c3F)c12 [Example 7, (R)-1-(5-(9-((4-((1-(((7-(8-ethynyl-7-fluoro-3-hydroxynaphthalen-1-yl)-8-fluoro-4-(3-hydroxy-3-methylpiperidin-1-yl)pyrido[4,3-d]pyrimidin-2-yl)oxy)methyl)cyclopropyl)methyl)piperazin-1-yl)methyl)-3-azaspiro[5.5]undecane-3-carbonyl)-2-methoxyphenyl)dihydropyrimidine-2,4(1H,3H)-dione]	≤ 500 nM	≤ 50 nM	≤ 50 nM	≤ 50 nM	1.81 nM	≤ 50 nM
CCc1c(F)ccc2cc(O)cc(-c3ncc4c(N5CCC[C@@](C)(O)C5)nc(OCC5(CN6CCN(CC7CCC8(CC7)CCN(C(=O)c7ccc(Cl)c(N9CCC(=O)NC9=O)c7)CC8)CC6)CC5)nc4c3F)c12 [Example 2, (R)-1-(2-chloro-5-(9-((4-((1-(((7-(8-ethyl-7-fluoro-3-hydroxynaphthalen-1-yl)-8-fluoro-4-(3-hydroxy-3-methylpiperidin-1-yl)pyrido[4,3-d]pyrimidin-2-yl)oxy)methyl)cyclopropyl)methyl)piperazin-1-yl)methyl)-3-azaspiro[5.5]undecane-3-carbonyl)phenyl)dihydropyrimidine-2,4(1H,3H)-dione]	≤ 500 nM	≤ 50 nM	≤ 50 nM	≤ 50 nM	1.85 nM	≤ 50 nM
CCc1cccc2cc(O)cc(-c3ncc4c(N5CCC[C@@](C)(O)C5)nc(OCC5(CN6CCN(CC7CCC8(CC7)CCN(C(=O)c7ccc(Cl)c(N9CCC(=O)NC9=O)c7)CC8)CC6)CC5)nc4c3F)c12 [Example 3, (R)-1-(2-chloro-5-(9-((4-((1-(((7-(8-ethyl-3-hydroxynaphthalen-1-yl)-8-fluoro-4-(3-hydroxy-3-methylpiperidin-1-yl)pyrido[4,3-d]pyrimidin-2-yl)oxy)methyl)cyclopropyl)methyl)piperazin-1-yl)methyl)-3-azaspiro[5.5]undecane-3-carbonyl)phenyl)dihydropyrimidine-2,4(1H,3H)-dione]	≤ 500 nM	≤ 50 nM	≤ 50 nM	100 to 500 nM	2.52 nM	≤ 50 nM

— US20260167622A1, “PAN-KRAS DEGRADING AGENT, AND PREPARATION METHOD THEREFOR AND USE THEREOF” (LEADINGTAC PHARMACEUTICAL (SHAOXING) CO., LTD., priority 2022, published 2026)
